Read-outs that look alike come from different tables or passages of the source.
Legend:
[1] = Pharmacokinetic study (mouse), levels of API after prodrug dosing; format: in vivo; details: mice, 10 mg/kg p.o., 1 h, 2 h, 4 h; for brain levels of API (example 1 compound): brain at 0.5 h, LCMS (FIG. 2); for liver levels of API (example 1 compound): liver at 0.5 h, LCMS (FIG. 3); for plasma levels of API (example 1 compound): plasma at 0.5 h, LCMS (FIG. 1)
Description: Pharmacokinetic studies (mouse) were performed on the example 1, 6-P, 8-P, and 11-P compounds of the present invention. The example 1, 6-P, 8-P, and 11-P compounds were dosed in mice at 10 mg/kg p.o. (n=2). Plasma, brain, and liver were harvested at 0.5 h, 1 h, 2 h, and 4 h. The samples were analyzed by LCMS to determine levels of the example 1 compound, i.e., the active pharmaceutical ingredient (API) for prodrug examples 6-P, 8-P, and 11-P.

[2] = system: TNF-α production by BV2 cells or PBMC; experiment: Cellular assay to measure TNF-α inhibition (LPS-stimulated, ELISA); format: cell-based, murine (BV2) or human (PBMC); details: BV2 cells or PBMC (not specified), LPS 100 ng/ml over 24 hours, relative to DMSO vehicle; compound concentration not stated
Excerpt: Oxidative metabolism exerts an anti-inflammatory effect on myeloid cell phenotype (O'Neill L A, Front Immunol. 2014) and Ppargc1a can promote this energy metabolic pathway (Spiegelman BM, Novartis Found Symp. 2007). Thus, pharmacological activation of Ppargc1a would be expected to inhibit the inflammatory response of myeloid cells. This phenomenon can be measured in cultures by a TNF-α inhibition assay.
Cellular Assay Protocol to Measure TNF-α Inhibition
The murine myeloid cell line BV2 or human peripheral blood mononuclear cells (PBMC) are cultured in RPMI 1640 media (Cat #11875119, Gibco) supplemented with 10% fetal bovine serum and 1% L-glutamine 1% penicillin. These cells are then stimulated with 100 ng/ml of lipopolysaccharide (LPS, O111:B34, Cat # L2630, Sigma) over 24 hours. LPS stimulation results in the secretion of the inflammatory cytokine TNF-α by BV2 cells or PBMC, which can be quantified by ELISA in culture supernatant samples per manufacturer's protocol (Cat #558273 for BV2 and Cat #558299 for PBMC, BD Biosciences). To determine whether exampl compounds 1-78 inhibit TNF-α production by BV2 cells or PBMC, the cells were cultured in the presence of the compounds at different concentrations, and fold reduction in TNF-α production relative to TNF-α production by the same cells cultured in the presence of dimethylsulfoxide (as vehicle control) was determined.

[3] = Microsome stability assay, human liver microsomes; format: in vitro ADME; details: pH 7.4, 1 μM test compound, NADPH 1 mM, 37° C., 0-40 mins, read-out: HLM t1/2
Description: (§1) Microsome Stability Assay Protocol
(§2) Human liver microsomes (Corning #452117 lot 38291) or Mouse liver microsomes (Corning #452701, lot #6328004) were separately combined at a final concentration of […] with KxPO4 pH 7.4 (100 mM), MgCl2 (10 mM), and test compound (1 μM) and pre-incubated (10 min, 37° C.). Next, NADPH (1 mM) was added to begin reactions (total volume 100 μL). At various time points (0, 10, 20, and 40 mins), reactions were quenched with Clem stop solution (100 μL, 625 ng/mL) (Cyprotex) in Acetonitrile. Samples were centrifuged at 4000 g for 20 mins, diluted (75 μL into 75 μL 0.1% formic acid in water), and analyzed by LC-MS/MS.

[4] = Microsome stability assay, mouse liver microsomes; format: in vitro ADME; details: pH 7.4, 1 μM test compound, NADPH 1 mM, 37° C., 0-40 mins, read-out: MLM t1/2
Description: as §1, §2

[5] = Caco-2 permeability assay; details: human, Caco-2, pH 7.4, with elacridar (concentration not stated)
Caco-2 cells [6] = experiment: Caco-2 permeability assay; details: 10 μM, HBSS pH 7.4, 37° C., 2 h; for Caco2 A → B: without elacridar
Description: Caco-2 Permeability Assay Protocol
(§3) Caco-2 cells were maintained in DMEM in an atmosphere of 5% CO2. For transport experiments 5×10^5 cells/well of were seeded on polycarbonate filter inserts and allowed to grow and differentiate for 21±4 days before the cell monolayers were used for experiments. Apparent permeability coefficients were determined for A→B and B→A directions with and without the presence of elacridar as a transporter inhibitor. Up to three test items and reference compounds were dissolved in Hank's balanced salt solution at pH 7.4 to yield a final concentration of 10 μM.
(§4) The assays were performed in HBSS containing 25 mM HEPES (pH 7.4) at 37° C. Prior to the study, the monolayers were washed in prewarmed HBSS. At the start of the experiments prewarmed HBSS containing the test items was added to the donor side of the monolayer and HBSS without test items was added to the receiver side. Aliquots of the receiver side were taken over the 2 h incubation period; aliquots of the donor side were taken at 0 hand 2 h. Aliquots were diluted with an equal volume of methanol/water with 0.1% formic acid containing the internal standard. The mixture was analyzed by LC-MS/MS. The apparent permeability coefficients (Papp) were calculated using the formula: Papp=(dCrec/dt)/(A×C0,donor)]×106 with dCrev/dt being the change in concentration in the receiver compartment with time, C0,donor the concentration in the donor compartment at time 0, and A the area of the compartment with the cells.

Caco-2 cells [7] = details: human, Caco-2, 2 h, 10 μM, pH 7.4
Description: Caco-2 Permeability Assay Protocol
as §3, §4

in vitro = details: human, Caco-2, pH 7.4
Description: Caco-2 Permeability Assay Protocol
as §3, §4

SMILES	brain levels of API (example 1 compound) [1]	liver levels of API (example 1 compound) [1]	plasma levels of API (example 1 compound) [1]	TNF α Inhibition [2]	half-life at 1 μM [3]	half-life at 1 μM [4]	Papp A→B at 2 h, 10 μM [5]	Caco2 A → B (Caco-2 cells [6])	Caco2 B → A (Caco-2 cells [6])	Caco2 B → A (Caco-2 cells [7])	Papp A→B at 2 h, 10 μM (in vitro)
CC(C)(C)c1ccc(-c2nc3ccccc3n2COC(=O)CCC(=O)O)cc1 [Example 6-P, 4-((2-(4-(tert-Butyl)phenyl)-1H-benzo[d]imidazol-1-yl)methoxy)-4-oxobutanoic acid]	measurable amounts	measurable amounts	measurable amounts	–	–	–	–	–	–	–	–
Nc1ccc(-c2nc3ccccc3[nH]2)cc1 [Example 76, 2-(4-Aminophenyl)-1H-benzo[d]imidazole]	–	–	–	A (A = >80% inh.)	25.4 min	8.3 min	3.11 ×10⁻⁶ cm/s	47.8 nm/s	–	–	–
CC(C)(C)c1ccc(-c2nc3ccccc3n2COC(=O)c2ccc(CN)cc2)cc1.Cl [Example 8-P, (4-(((2-(4-(tert-butyl)phenyl)-1H-benzo[d]imidazol-1-yl)methoxy)carbonyl)-phenyl)methylammonium hydrochloride]	measurable amounts	measurable amounts	measurable amounts	–	–	–	–	–	–	–	–
CC(C)(C)c1ccc(-c2nc3cc(N)ccc3[nH]2)cc1 [Example 44, 2-(4-tert-Butylphenyl)-1H-benzo[d]imidazol-5-amine]	–	–	–	A (A = >80% inh.)	42.5 min	20.6 min	2.05 ×10⁻⁶ cm/s	23.6 nm/s	45.4 nm/s	–	–
CC(C)(C)c1ccc(-c2nc3c(F)cc(F)cc3[nH]2)cc1 [Example 57, 2-(4-tert-Butylphenyl)-4,6-difluoro-1H-benzo[d]imidazole]	–	–	–	A (A = >80% inh.)	99.2 min	46.7 min	0.13 ×10⁻⁶ cm/s	11.1 nm/s	8.42 nm/s	–	–
CC(C)(C)c1cccc(-c2nc3ccccc3[nH]2)c1 [Example 58, 2-(3-tert-Butylphenyl)-1H-benzo[d]imidazole]	–	–	–	A (A = >80% inh.)	6.9 min	4.7 min	0.86 ×10⁻⁶ cm/s	21 nm/s	30.9 nm/s	–	–
CC(C)(C)c1ccc(-c2cn3ccccc3n2)cc1 [Example 5, 2-(4-tert-Butylphenyl)imidazo[1,2-a]pyridine]	–	–	–	A (A = >80% inh.)	11.5 min	8.4 min	0.858 ×10⁻⁶ cm/s	9.86 nm/s	–	–	–
CC(C)(C)c1ccc(-c2nc3ccccc3n2COP(=O)([O-])[O-])cc1.[Na+].[Na+] [Example 11-P, Disodium ((2-(4-(tert-butyl)phenyl)-1H-benzo[d]imidazol-1-yl)methyl) phosphate]	measurable amounts	measurable amounts	measurable amounts	–	–	–	–	–	–	–	–
CC(C)(C)c1ccc(-c2nc3ccccc3[nH]2)cc1 [Example 1, 2-(4-(tert-Butyl)phenyl)-1H-benzo[d]imidazole]	–	–	–	A (A = >80% inh.)	14 min	16.7 min	–	–	–	31.5 nm/s	0.659 ×10⁻⁶ cm/s
